Experimental data published in patent US9702824B2, “pH sensors” (PROMEGA CORPORATION, priority 2012, dated 2017).

Tests used:
U2OS cells = assay: Toxicity, CELLTITER-GLO Luminescent Cell Viability Assay (Example 3); format: cell-based; settings: 0 nM to 20 uM, 24 hour
Procedure: The toxicity of dyes PBI-4479 and PBI-4453 was tested in U2OS cells. The cells were plated at 20,000 cells/well in McCoy's 5A media+10% FBS into wells of a 96-well plate. The compounds were then serially diluted 2-fold in McCoy's 5A+10% FBS to a 10× working solution. 10 ul of the working solution was added to the cells to a final concentration of 0 nM to 20 uM. The treated cells were then incubated overnight at 37° C., 5% CO2. Toxicity was tested using Promega's CELLTITER-GLO Luminescent Cell Viability Assay according to the manufacturer's protocol. No toxicity was seen across varying concentrations of the compounds over the 24 hour period (SEE FIG. 9).

[1] = Fluorescence excitation and emission spectra of pH sensor agents; format: physicochemical
Procedure: Experiments were conducted during development of embodiments of the present invention to determine the fluorescence characteristics of exemplary pH sensor agents PBI-4453 and PBI-4479 (SEE FIG. 1). Fluorescence excitation and emission intensities were measured at a range of wavelengths (SEE FIG. 2). […] Fluorescence detection was performed at a range of pH values (SEE FIG. 3).

wild-type U2-OS cells = assay: Toxicity of HaloTag pH sensors, CELLTITER Glo Cell Viability Assay (Example 9); format: cell-based; settings: 0-10 uM, overnight
Procedure: U2-OS cells were plated at 10,000 cells/well into wells of 96-well plates and incubated overnight. The next day, 0-10 uM (serially diluted 1:2) PBI-4959, PBI-5004 or PBI-4479 was added to the cells and again incubated overnight. After incubation, the media containing the HaloTag® pH sensors was removed, and 100 ul of fresh media (McCoy's 5A+10% FBS) was added. Cell viability was determined using the CELLTITER Glo Cell Viability Assay according to the manufacturer's protocol (Promega Corporation). Luminescence was read on a GloMAX®-Multi luminometer.

[2] = Stability in DMSO by fluorescent emission intensity; format: physicochemical; settings: for Emission intensity, Ave: average of days 0-110; for Emission intensity: shielded from light, 562 nm, pH 4.0
Procedure: (§1) PBI-4479 was dissolved to 2 mM in DMSO to approximately 2.33 mg/mL. Aliquots of 350 uL from the 2 mM solution were stored shielded from light at −20° C., 4° C. and room temperature. Stability was established by measuring fluorescent emission intensity and by testing HPLC purity at time 0, 1 day, 1 week, 1 month, 4 months, and 6 months from when the solutions were prepared and stored. For the fluorescence measurements, each aliquot was diluted (1 uL) into 4 mL of 0.1M sodium phosphate pH 4.0 directly into a 4.5 mL plastic cuvette and mixed by inversion of the vial. The maximum emission peak at 562 nm was acquired using a HoribaJobinYvon fluorometer using an excitation of 532 nm with 1.5 nm slit width. For HPLC measurements, each aliquot was diluted to 1 mM in 0.1M sodium phosphate pH 4.0, and 2 uL tested. The purity of each aliquot was tested using an Agilent 1100 liquid chromatography system equipped with a quaternary pump and a diode-array detector. The diode-array detector was set at 254 nm and 532 nm. The elution was performed using a mobile phase (A) containing 0.1% TFA in water, and a mobile phase (B) containing HPLC grade acetonitrile. A Phenomenex Synergi MAX-RP column (50×4.6 mm; 2.6 μm) was used to perform the chromatography. The HPLC was performed as follows: a gradient ran 3% to 60% mobile phase (B) to 3.60 minutes, a hold at 60% mobile phase (B) for 1 minute, a ramp up to 100% mobile phase (B) to 6 minutes, another hold at 100% mobile phase (B) for 2 minutes, and then back to 3% mobile phase (B) for 1.5 minutes. The column was given 2.5 minutes to re-equilibrate back to the starting conditions. In these conditions, the product elutes at approximately 3.7 minutes. Purity (as area percent) of the product was reported at 254 nm and 532 nm.

[3] = Fluorescence intensity loss and recovery when titrated with base and acid; format: physicochemical; settings: titrated from pH 4 to approximately 8 with NaOH and back to approximately 4 with HCl
Procedure: This example was performed to determine if fluorescence intensity of a pH sensor of the present invention, PBI-4479, which is mostly fluorescent at pH 4, could be recovered when titrated to basic pH, then back to acidic pH. In order to limit disruption of the concentration of the sensor, the experiment was run in a large volume, and the pH was adjusted dropwise with a concentrated base, then with an acid. The product was first dissolved in DMSO to create a concentrated stock, and then a small amount was diluted into 100 mL 10 mM sodium phosphate buffer pH 4.0. Fluorescence was recorded on a HoribaJobinYvon Fluorolog throughout the experiment using an excitation of 528 nm, and emission at 557 nm maintaining a slit width of 2 nm. Excitation and emission maxima were also determined for each aliquot in the event the fluorescence properties of the molecule changed. pH was monitored using a calibrated pH probe (Denver Instruments Model 215 pH meter). 1 mL aliquots were removed when the solution increased to approximately one pH unit, and fluorescence was measured using the parameters stated above. The solution was first titrated dropwise with 2N sodium hydroxide while stirring, until a pH of approximately 8 was attained. The solution was then titrated down with 4N hydrochloric acid until a pH of approximately 4 was attained.

[4] = Stability in DMSO by HPLC purity; format: physicochemical; settings: 2 mM in DMSO; for HPLC Purity @ 532 nm, Ave: average of days 0-110; for HPLC Purity @ 532 nm: shielded from light
Procedure: as §1

In the case of `O=C(NCCOCCOCCOCCOCCOCCOCCCCCCCl)c1ccc(C(=O)[O-])c(-c2c3ccc(=[N+]4CCN(CCCCS(=O)(=O)O)CC4)cc-3oc3cc(N4CCN(CCCCS(=O)(=O)O)CC4)ccc23)c1` [PBI-4479], the “toxicity (cell viability)” value (U2OS cells) is reported as “No toxicity”, the emission maximum [1] is reported as 562 nm and the excitation maximum [1] is reported as 534 nm. The “toxicity (cell viability)” value (wild-type U2-OS cells) was “non-toxicity”, the “degradation by fluorescence intensity” value ([2]; 2 mM DMSO solution stored at room temperature) was “slight degradation” and the “Emission intensity, Ave” value ([2]; 2 mM in DMSO, 4° C.) was 2096856.0. For the same compound, the “Emission intensity, Ave” value ([2]; 2 mM in DMSO, RT) was 2193684.0, the Emission intensity ([2]; 2 mM in DMSO, 4° C., 0 days) was 2109020 and the Emission intensity ([2]; 2 mM in DMSO, 4° C., 1 day) was 2203160. It also gave an Emission intensity ([2]; 2 mM in DMSO, 4° C., 7 days) of 2055280, an Emission intensity ([2]; 2 mM in DMSO, 4° C., 30 days) of 2076310 and an Emission intensity ([2]; 2 mM in DMSO, 4° C., 110 days) of 2040510. It also gave an Emission intensity ([2]; 2 mM in DMSO, RT, 0 days) of 2109020, an Emission intensity ([2]; 2 mM in DMSO, RT, 1 day) of 2641010 and an Emission intensity ([2]; 2 mM in DMSO, RT, 7 days) of 2092940. For the same compound, the Emission intensity ([2]; 2 mM in DMSO, RT, 30 days) was 2158320, the Emission intensity ([2]; 2 mM in DMSO, RT, 110 days) was 1967130 and the Emission intensity ([2]; 2 mM in DMSO, −20° C., 0 days) was 2109020. It also gave an Emission intensity ([2]; 2 mM in DMSO, −20° C., 1 day) of 2336260, an Emission intensity ([2]; 2 mM in DMSO, −20° C., 7 days) of 2006990 and an Emission intensity ([2]; 2 mM in DMSO, −20° C., 30 days) of 2191770. For the same compound, the Emission intensity ([2]; 2 mM in DMSO, −20° C., 110 days) was 1926570, the time stable ([2]; 2 mM in DMSO, stored below room temperature, by emission intensity and HPLC purity) was “at least 180 days” and the “Emission intensity, Ave” value ([2]; 2 mM in DMSO, −20° C.) was 2114122.0. The “reversibility of fluorescence intensity” value [3] was “fluorescent intensity loss and recovery”, the “HPLC Purity @ 532 nm, Ave” value ([4]; 4° C.) was 93.6 area percent and the “HPLC Purity @ 532 nm, Ave” value ([4]; RT) was 92.5 area percent. The “HPLC Purity @ 532 nm” value ([4]; 4° C., 0 days) was 91.8 area percent, the “HPLC Purity @ 532 nm” value ([4]; 4° C., 1 day) was 92.5 area percent and the “HPLC Purity @ 532 nm” value ([4]; 4° C., 7 days) was 93.9 area percent. The “HPLC Purity @ 532 nm” value ([4]; 4° C., 30 days) was 95.7 area percent, the “HPLC Purity @ 532 nm” value ([4]; 4° C., 110 days) was 93.9 area percent and the “HPLC Purity @ 532 nm” value ([4]; RT, 0 days) was 91.8 area percent. For the same compound, the “HPLC Purity @ 532 nm” value ([4]; RT, 1 day) was 91.3 area percent, the “HPLC Purity @ 532 nm” value ([4]; RT, 7 days) was 92.5 area percent and the “HPLC Purity @ 532 nm” value ([4]; RT, 30 days) was 95.1 area percent. The “HPLC Purity @ 532 nm” value ([4]; RT, 110 days) was 91.8 area percent, the “HPLC Purity @ 532 nm” value ([4]; −20° C., 0 days) was 91.1 area percent and the “HPLC Purity @ 532 nm” value ([4]; −20° C., 1 day) was 93.9 area percent. For the same compound, the “HPLC Purity @ 532 nm” value ([4]; −20° C., 7 days) was 92.7 area percent, the “HPLC Purity @ 532 nm” value ([4]; −20° C., 30 days) was 95.8 area percent and the “HPLC Purity @ 532 nm” value ([4]; −20° C., 110 days) was 95.2 area percent. For the same compound, the “HPLC Purity @ 532 nm, Ave” value ([4]; −20° C.) was 93.7 area percent.
